Data published in patent publication US6617361B2, “Behavior chemotherapy” (Be Able, LLC, priority 1999, dated 2003).
Where a name gives a salt, the structure may show the parent alone.

What was measured:
Patient five = assay: Protocol and results with patient five (severe obesity); type: in vivo, human; details: for body weight: December 1997, combination Ionamin 30 mg + fenfluramine 20 mg + Zoloft 25 mg q.d. since August 1995, start in excess of 350 lb; for body weight reported by phone: combination Adipex-P 37.5 mg one-half b.i.d. + Celexa 20 mg one-half MWF + Adalat 30 + Aricept + Nutrimed three times daily, from 264¼ lb
Excerpt: This person has been a patient in this practice for many years. Their medical problems are extremely long-lived and include chronic depression, severe obesity, hypertension, stasis dermatitis, and venous insufficiency of the lower extremities, and seborrhea.
In addition they were taking Lasix, Zaroxolyn and potassium for the control of their severe edema and leg pain. They were also using the CPAP machine.
At their insistence Meridia and Adalat were attempted. […] To augment the weight loss the patient was started on Nutrimed three times daily plus a regular dinner.

Patient six [1] = assay: Protocol and results with patient six, Example 12 (thalamic pain syndrome, ethanol use); details: for body weight change: approximately five weeks into therapy, combination Adipex-P + fenfluramine + Celexa + Nutrimed; for energy level / pain as described by patient: combination Adipex-P 37.5 one-half b.i.d. + fenfluramine 10 mg + Celexa 10 mg + Nutrimed three times daily (+ atenolol 25 mg); for alcohol withdrawal phenomena: combination Adipex-P 37.5 one-half b.i.d. + fenfluramine 10 mg + Celexa 10 mg + Nutrimed three times daily + Librium 30 mg (three days) + atenolol 25 mg; for outcome of earlier trials for thalamic pain syndrome: before the protocol
Method: Person with sudden onset of numbness right side of body in Guyana 1973. […] Diagnosis was thalamic pain syndrome.
Other medical problems: borderline hypertension, obesity secondary to ETOH, hemorrhoids, and remote short-lived cigarette smoking.
At the time therapy started the patient was taking either hydrocodone/APAPE 7.5/500 as needed or Percocet. […] Therapy was started with Adipex-P 37.5 one-half p.o. bid., fenfluramine 10 mg p.o. q.a.m., Celexa 10 mg p.o. q.a.m., Nutrimed three times daily plus dinner for nutritional support (Nutrimed is a high protein, low carbohydrate semi-starvation fast), Librium 30 mg q.d. because of the discontinuation of alcohol, atenolol 25 mg q.a.m. Treatment started July 1999.
By mid-August, approximately five weeks into therapy, the patient was still on Nutrimed and Adipex but the fenfluramine was diminished to one-quarter of a pill or 5 mg. The atenolol was discontinued and the patient was encouraged to exercise.

Patient four = assay: Protocol and results with patient four (morbid obesity, cardiomyopathy); type: in vivo, human; details: for cardiac index remeasured / body weight the next month: combination Adipex-P 37.5 one-half + Zoloft 25 mg + Aricept 1.25 mg + fenfluramine 5 mg (+ atenolol 12.5 mg); for body weight the next month: from 235 lb June 1999
Method: This person has been in the practice for several years. Their medical problems surround a cardiomyopathy with a low cardiac output state and heart failure. They also have a history of hypertension, hypothyroidism on therapy, and morbid obesity.
Medication alterations continued over the next several months with increasing Ionamin to 30 mg. Hytrin was added at 2 mg because of prostatic symptoms and in November Pondimin was added.
Adipex-P 37.5 one-half was added to their medications. […]

Patient three = assay: Protocol and results with patient three (chronic fatigue); details: for side effect noted by patient: combination reduced to Adipex-P 37.5 one-half, Celexa one-quarter, Aricept one-quarter, fenfluramine one-quarter pill q.a.m.; for patient-reported status: within two days, combination Adipex-P 37.5 mg one-half b.i.d. + Celexa 10 mg q.d. + fenfluramine 10 mg q.d. + Aricept one-half q.d.
Excerpt: Longstanding patient in my practice who […] developed a viral illness followed by chronic fatigue. This problem persisted, numerous evaluations and consultations were obtained, in excess of 20 physicians were consulted, and the patient was followed for nine months in a major medical center with the diagnosis of chronic Lyme disease. Prior to this their symptoms included a compendium of mild lifelong autonomic dysfunction including chronic bladder and urethral problems which necessitated urological surgery in the distant past. They had not retired from work but had taken long leaves of absence and found it difficult to keep up their normal work schedule as a social worker, something they had done for many years. In the past for their autonomic dysfunction they had been placed on Depakote, Wellbutrin, and amitriptyline and they were on this when they became ill.
Their other medical problems included mitral valve prolapse with click and no murmur but no symptoms, a history of endometriosis, occasional kidney stones, and an ovarian cyst.
Therapy was begun on May 26, 1999. On Jun. […] They were still on 12.5 mg of Elavil or one-half pill and some minocin for acne, Wellbutrin from their psychiatrist, and Zithromax, an antibiotic started by other physicians for the treatment of Lyme disease. This is something that I advised them to discontinue, but they continued because of the concerns of the diagnosis.

Patient one = assay: Protocol and results with patient one (cigarette smoking); details: January 1998; Ionamin 15 mg + Prozac 10 mg MWF (+ Estratest, occasional Tranxene)
Excerpt: In addition, they were started on the moderate dose of the patch.

Patient two = assay: Protocol and results with patient two (leg pain, absence of energy); type: in vivo, human; details: for body weight: August 1999, from 143 lb November 1998, Celexa 10 mg + Adipex-P 37.5 one-half (+ atenolol 25 mg), later with Aricept 1.25 mg three times weekly; for weight reduction / leg aches: Celexa + Adipex-P + Aricept (atenolol at first); for weight reduction: November 1998 to August 1999; for leg aches: by August 1999
Method: First evaluated this 5′4″, ectomorphic, single person who was […] at the time.
On Nov. […] They were started on Celexa 10 mg, Adipex-P 37.5 one-half tablet, and atenolol 25 mg all in the morning.
They will keep in touch with me as they will take each instruction for four doses and then go to the next.

Patient six [2] = assay: Protocol and results with patient six, Example 10 (fibromyalgia, obesity); type: in vivo, human; details: for weight lost on therapy to date: Ionamin + fenfluramine (until 1996) + Zoloft from December 1995, Aricept from August 1998; for body weight: July 1999; for overall condition: over three years from December 1995, combination Ionamin 30 mg + fenfluramine 20 mg + Zoloft 25 mg, fenfluramine discontinued 1996
Excerpt: This longstanding patient was first seen in 1988 for fibromyalgia. They are also bothered by chronic low back pain, mitral valve prolapse, sleep disturbance, a family history of coronary disease, and obesity. They are 5′8″ tall, 205½ lb. […] Their problem list contained the additional diagnoses of GERD, carpal tunnel syndrome, suspected mitral valve prolapse, and acne rosacea.
Their medication list included Synthroid, Estratest, Klonopin, Prilosec, Limbitrol, Provera, Premarin and Zostrix cream. […] They frequented health food stores, as well as chiropractors for relief.
Although greatly fearful of potential long-term problems, the patient finally agreed to the institution of a change in their medications and started therapy which was a major change in their medicines December 1995. […] At that time the patient's weight was in the mid 180s. Their other medications were continued.
This was an independent patient-initiated decision.

[3] = July 1997, combination Ionamin 30 mg + Zoloft 25 + Pondimin
[4] = November, Ionamin (15 then 30 mg) + Zoloft 25 since April 1996, before Pondimin, not decreasing, averaging 237 lb before
[5] = current medication includes Ionamin 15 mg q.a.m. and Aricept one-quarter pill MWF

With `CC(C)(N)Cc1ccccc1` [Adipex-P, phentermine] the body weight (Patient five) was 245 lb, the body weight reported by phone (Patient five) was roughly 240 lb and the body weight change (Patient six [1]) was “marked weight loss”. For the same compound, the energy level (Patient six [1]) was “marked improvement in energy level”, the “pain as described by patient” value (Patient six [1]) was “markedly diminished” and the alcohol withdrawal phenomena (Patient six [1]) was “no withdrawal phenomena”. For the same compound, the “improvement (weight, fatigue)” value (Patient four; Adipex-P 37.5 one-half + Celexa 10 mg twice weekly + Aricept one-quarter pill MWF, in the absence of fenfluramine) was “essentially no improvement”, the body weight (Patient four; [3]) was 217 lb and the “cardiac output by echocardiography” value (Patient four; [3]) was “improved”. The body weight (Patient four; [4]) was 230 lb, the cardiac index remeasured (Patient four) was “even more improved than previously” and the “body weight the next month” value (Patient four) was 218. For the same compound, the “side effect noted by patient” value (Patient three) was “some difficulty sleeping”, the patient-reported status (Patient three) was “life had been transformed back towards its normal status” and the body weight (Patient one) was 119 lb. The smoking status (Patient one) was “not smoking”, the body weight (Patient two) was 127 lb and the weight reduction (Patient two) was 12.5%. For the same compound, the leg aches (Patient two) was “resolution of their leg aches”, the “weight lost on therapy to date” value (Patient six [2]) was “approximately 25 lb” and the body weight (Patient six [2]; [5]) was 161 lb. The “chronic fatigue remaining, of its original” value (Patient six [2]; [5]) was roughly 20% and the overall condition (Patient six [2]) was “greatly improved”.
With `COc1cc2c(cc1OC)C(=O)C(CC1CCN(Cc3ccccc3)CC1)C2` (stereo not shown) [Aricept, donepezil] the weight reduction (Patient two) was 12.5%, the leg aches (Patient two) was “resolution of their leg aches” and the “patient-reported status after addition” value (Patient six [2]; Aricept 2.5 mg Monday, Wednesday, Friday added August 1998 to ongoing therapy) was “felt much better”. For the same compound, the “weight lost on therapy to date” value (Patient six [2]) was “approximately 25 lb” and the body weight (Patient six [2]; [5]) was 161 lb.
`CN(C)CCCC1(c2ccc(F)cc2)OCc2cc(C#N)ccc21` (stereo not shown) [Celexa, citalopram] showed a body weight reported by phone (Patient five) of roughly 240 lb, a body weight (Patient two) of 127 lb and a weight reduction (Patient two) of 12.5%.
In the case of `O=C1NC(=O)C(c2ccccc2)(c2ccccc2)N1` [Dilantin], the “outcome of earlier trials for thalamic pain syndrome” value (“outcome of earlier trials” below) (Patient six [1]) is reported as “no help”.
For `CN(C)CCC=C1c2ccccc2CCc2ccccc21` [Elavil], the “outcome of earlier trials” value (Patient six [1]) was “no help”.
For `CNC1=Nc2ccc(Cl)cc2C(c2ccccc2)=[N+]([O-])C1` [Librium], the side effect (Patient six [1]; 30 mg q.d., discontinued by day three) was “mild sleepiness” and the alcohol withdrawal phenomena (Patient six [1]) was “no withdrawal phenomena”.
With `NCC1(CC(=O)O)CCCCC1` [Neurontin] the “outcome of earlier trials” value (Patient six [1]) was “no help”.
`CNCCC(Oc1ccc(C(F)(F)F)cc1)c1ccccc1` (stereo not shown) [Prozac, fluoxetine HCl] was tested, and the body weight (Patient one) was 119 lb and the smoking status (Patient one) was “not smoking”.
With `NC(=O)N1c2ccccc2C=Cc2ccccc21` [Tegretol] the “outcome of earlier trials” value (Patient six [1]) was “no help”.
`CN[C@H]1CC[C@@H](c2ccc(Cl)c(Cl)c2)c2ccccc21` [Zoloft, sertraline HCl] was tested, and the body weight (Patient five) was 245 lb, the “cardiac output by echocardiography” value (Patient four; [3]) was “improved” and the body weight (Patient four; [4]) was 230 lb. For the same compound, the “weight lost on therapy to date” value (Patient six [2]) was “approximately 25 lb” and the overall condition (Patient six [2]) was “greatly improved”.
In the case of `CCNC(C)Cc1cccc(C(F)(F)F)c1` (stereo not shown) [fenfluramine], the body weight (Patient five) is reported as 245 lb, the body weight change (Patient six [1]) is reported as “marked weight loss” and the energy level (Patient six [1]) is reported as “marked improvement in energy level”. The “pain as described by patient” value (Patient six [1]) was “markedly diminished”, the alcohol withdrawal phenomena (Patient six [1]) was “no withdrawal phenomena” and the body weight (Patient four; [3]) was 217 lb. For the same compound, the “cardiac output by echocardiography” value (Patient four; [3]) was “improved”, the cardiac index remeasured (Patient four) was “even more improved than previously” and the “body weight the next month” value (Patient four) was 218. For the same compound, the “side effect noted by patient” value (Patient three) was “some difficulty sleeping”, the patient-reported status (Patient three) was “life had been transformed back towards its normal status” and the “weight lost on therapy to date” value (Patient six [2]) was “approximately 25 lb”. For the same compound, the overall condition (Patient six [2]) was “greatly improved”.
With “hydrocodone/APAPE [hydrocodone/APAPE 7.5/500]” the effect on pain (Patient six [1]; taken as needed at the time therapy started) was “not effective”.
